For eleven molecules, AR degradation (%) and p53 level increase results are on record in patent publication US12577255B2, “MDM2-based modulators of proteolysis and associated methods of use” (Arvinas Operations, Inc., priority 2015, dated 2026).

SMILES strings stand for the structures.

The target of one assay is T1, androgen receptor (AR) (Homo sapiens, UniProt P10275).
T1 construct: detects endogenous levels of total androgen receptor protein; host or cells: VCaP
T1 sequence (P10275 1-920): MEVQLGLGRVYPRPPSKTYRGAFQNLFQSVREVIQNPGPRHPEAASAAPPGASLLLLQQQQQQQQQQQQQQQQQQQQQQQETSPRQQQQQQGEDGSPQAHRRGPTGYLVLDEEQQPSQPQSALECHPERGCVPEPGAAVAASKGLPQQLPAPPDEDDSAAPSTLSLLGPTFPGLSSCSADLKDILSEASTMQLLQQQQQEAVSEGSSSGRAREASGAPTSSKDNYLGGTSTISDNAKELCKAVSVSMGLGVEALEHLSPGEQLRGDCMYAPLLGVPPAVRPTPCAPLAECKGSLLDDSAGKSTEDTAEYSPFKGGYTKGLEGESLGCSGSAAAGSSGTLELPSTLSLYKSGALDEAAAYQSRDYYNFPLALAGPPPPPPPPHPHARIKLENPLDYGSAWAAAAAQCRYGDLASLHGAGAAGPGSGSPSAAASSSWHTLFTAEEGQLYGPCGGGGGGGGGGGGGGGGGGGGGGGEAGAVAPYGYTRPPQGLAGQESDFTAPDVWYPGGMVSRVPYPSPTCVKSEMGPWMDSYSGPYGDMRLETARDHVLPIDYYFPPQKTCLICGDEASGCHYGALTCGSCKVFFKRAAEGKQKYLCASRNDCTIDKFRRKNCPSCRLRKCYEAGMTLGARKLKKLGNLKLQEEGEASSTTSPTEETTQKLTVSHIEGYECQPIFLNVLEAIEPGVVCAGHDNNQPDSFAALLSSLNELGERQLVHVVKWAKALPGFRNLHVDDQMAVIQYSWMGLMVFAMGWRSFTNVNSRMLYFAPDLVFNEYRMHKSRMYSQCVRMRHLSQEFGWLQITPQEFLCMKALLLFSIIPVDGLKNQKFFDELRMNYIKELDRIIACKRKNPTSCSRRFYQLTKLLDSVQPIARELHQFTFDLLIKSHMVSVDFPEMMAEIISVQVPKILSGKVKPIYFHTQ
In words: AR ELISA assay (degradation). The assay is classed as cell-based. Particulars: VCaP cells, 16 h. On the procedure:
The following biological assays were performed to evaluate the protein degradation in various cell types using representative compounds disclosed. The degradation of the following proteins were evaluated: bromodomain-containing protein 4 (BRD4), androgen receptor (AR), c-Myc, c-Jun N-terminal kinases (JNK), and enhancer of zeste homolog 2 (EZH2).
VCaP cells were chased from ATCC and cultured in Dulbecco's Modified Eagle's Medium (ATCC), supplemented with 10% FBS (ATCC) and Penicillin/Streptomycin (Life Technologies). DMSO control and compound treatments (0.0001 μM to 1 μM) were performed in 96-well plates for 16 h. cells were harvested, and lysed with Cell Lysis Buffer (catalog #9803) (20 mM Tris-HCl, pH 7.5, 150 mM NaCl, 1 mM Na2EDTA, 1 mM EGTA, 1% Triton, 2.5 mM sodium pyrophosphate, 1 mM B-glycerophosphate, 1 mM Na3VO4, 1 μg/mL leupeptin. Lysates were clarified at 16,000 g for 10 minutes, and loaded into PathScan AR ELISA (Cell Signaling Catalog #12850). The PathScan Total Androgen Receptor Sanwich ELISA Kit is a solid phase sandwich enzyme-linked immunosorbent assay (ELISA) that detects endogenous levels of total androgen receptor protein. An Androgen Receptor Rabbit mAb has been coated onto the microwells. After incubation with cell lysates, androgen receptor protein is captured by the coated antibody. Following extensive washing, an Androgen receptor Mouse Detection mAbis added to detect the captured androgen receptor protein. Anti-mouse IgG, HRP-linked Antibody is then used to recognize the bound detection antibody. HRP substrate, TMB, is added to develop color. The magnitude of absorbance for the developed color is proportional to the quantity of total androgen receptor protein.
For orientation: An ELISA detects its analyte on a solid surface through an enzyme-linked reagent.
In turn, `CCOc1cc(C(C)(C)C)ccc1C1=NC(C)(c2ccc(Cl)cc2)C(C)(c2ccc(Cl)cc2)N1C(=O)N1CCN(CCOCCOc2ccc(N3C(=S)N(c4ccc(C#N)c(C(F)(F)F)c4)C(=O)C3(C)C)cc2)CC1` (centres unmarked) [Compound A680, 4-(3-{4-[2-(2-{4-[2-(4-tert-butyl-2-ethoxyphenyl)-4,5-bis(4-chlorophenyl)-4,5-dimethyl-4,5-dihydro-1H-imidazole-1-carbonyl]piperazin-1-yl}ethoxy)ethoxy]phenyl}-4,4-dimethyl-5-oxo-2-sulfanylideneimidazolidin-1-yl)-2-(trifluoromethyl)benzonitrile] yielded an AR degradation (%) at 1 µM of 0 to 25%.

Molecule `CCOc1cc(C(C)(C)C)ccc1C1=NC(C)(c2ccc(Cl)cc2)C(C)(c2ccc(Cl)cc2)N1C(=O)N1CCN(CCOCCOCCOCCOCCOCCOc2ccc(N3C(=S)N(c4ccc(C#N)c(C(F)(F)F)c4)C(=O)C3(C)C)cc2)CC1` (centres unmarked) [Compound A702, 4-(3-{4-[(17-{4-[2-(4-tert-butyl-2-ethoxyphenyl)-4,5-bis(4-chlorophenyl)-4,5-dimethyl-4,5-dihydro-1H-imidazole-1-carbonyl]piperazin-1-yl}-3,6,9,12,15-pentaoxaheptadecan-1-yl)oxy]phenyl}-4,4-dimethyl-5-oxo-2-sulfanylideneimidazolidin-1-yl)-2-(trifluoromethyl)benzonitrile] gave an AR degradation (%) at 1 µM of 25 to 50%.

Take `CC(C)(C)C[C@@H]1NC(C(=O)NCCOCCOc2ccc(C(=O)N[C@H]3C(C)(C)[C@H](Oc4ccc(C#N)c(Cl)c4)C3(C)C)cc2)[C@H](c2cccc(Cl)c2F)[C@@]1(C#N)c1ccc(Cl)cc1F` (stereo partly drawn) [Compound A1571, 3-(3-chloro-2-fluorophenyl)-4-(4-chloro-2-fluorophenyl)-4-cyano-5-(2,2-dimethylpropyl)-N-{2-[2-(4-{[(1,3-trans)-3-(3-chloro-4-cyanophenoxy)-2,2,4,4-tetramethylcyclobutyl]carbamoyl}phenoxy)ethoxy]ethyl}pyrrolidine-2-carboxamide]: the AR degradation (%) at 1 µM was 0 to 25%.

Molecule `CC(C)(C)C[C@@H]1NC(C(=O)NCCOCCOCCOCCOc2ccc(C(=O)N[C@H]3C(C)(C)[C@H](Oc4ccc(C#N)c(Cl)c4)C3(C)C)cc2)[C@H](c2cccc(Cl)c2F)[C@@]1(C#N)c1ccc(Cl)cc1F` (stereo partly drawn) [Compound A1603, 3-(3-chloro-2-fluorophenyl)-4-(4-chloro-2-fluorophenyl)-4-cyano-5-(2,2-dimethylpropyl)-N-[1-(4-{[(1,3-trans)-3-(3-chloro-4-cyanophenoxy)-2,2,4,4-tetramethylcyclobutyl]carbamoyl}phenyl)-1,4,7,10-tetraoxadodecan-12-yl]pyrrolidine-2-carboxamide] displayed an AR degradation (%) at 1 µM of 0 to 25%.

`CC(C)(C)C[C@@H]1NC(C(=O)NCCOCCOCCOc2ccc(C(=O)N[C@H]3C(C)(C)[C@H](Oc4ccc(C#N)c(Cl)c4)C3(C)C)cc2)[C@H](c2cccc(Cl)c2F)[C@@]1(C#N)c1ccc(Cl)cc1F` (stereo partly drawn) [Compound A1621, 3-(3-chloro-2-fluorophenyl)-4-(4-chloro-2-fluorophenyl)-4-cyano-5-(2,2-dimethylpropyl)-N-(2-{2-[2-(4-{[(1,3-trans)-3-(3-chloro-4-cyanophenoxy)-2,2,4,4-tetramethylcyclobutyl]carbamoyl}phenoxy)ethoxy]ethoxy}ethyl)pyrrolidine-2-carboxamide] showed an AR degradation (%) at 1 µM of 0 to 25%.

Take `CC(C)(C)C[C@@H]1NC(C(=O)NCCOCCOCCOCCOCCOCCOc2ccc(C(=O)N[C@H]3C(C)(C)[C@H](Oc4ccc(C#N)c(Cl)c4)C3(C)C)cc2)[C@H](c2cccc(Cl)c2F)[C@@]1(C#N)c1ccc(Cl)cc1F` (stereo partly drawn) [Compound A1688, 3-(3-chloro-2-fluorophenyl)-4-(4-chloro-2-fluorophenyl)-4-cyano-5-(2,2-dimethylpropyl)-N-[1-(4-{[(1,3-trans)-3-(3-chloro-4-cyanophenoxy)-2,2,4,4-tetramethylcyclobutyl]-carbamoyl}phenyl)-1,4,7,10,13,16-hexaoxaoctadecan-18-yl]pyrrolidine-2-carboxamide]: the AR degradation (%) at 1 µM is 0 to 25%.

On to `CC(C)(C)C[C@@H]1NC(C(=O)NCCOCCOCCOCCOCCOc2ccc(C(=O)N[C@H]3C(C)(C)[C@H](Oc4ccc(C#N)c(Cl)c4)C3(C)C)cc2)[C@H](c2cccc(Cl)c2F)[C@@]1(C#N)c1ccc(Cl)cc1F` (stereo partly drawn) [Compound A1717, 3-(3-chloro-2-fluorophenyl)-4-(4-chloro-2-fluorophenyl)-4-cyano-5-(2,2-dimethylpropyl)-N-[1-(4-{[(1,3-trans)-3-(3-chloro-4-cyanophenoxy)-2,2,4,4-tetramethylcyclobutyl]carbamoyl}phenyl)-1,4,7,10,13-pentaoxapentadecan-15-yl]pyrrolidine-2-carboxamide], for which the AR degradation (%) at 1 µM is 25 to 50%.

On to `CC(C)(C)C[C@@H]1N[C@@H](C(=O)NCCOCCOCCOCCOCCOc2ccc(C(=O)N[C@H]3C(C)(C)[C@H](Oc4ccc(C#N)c(Cl)c4)C3(C)C)cc2)[C@H](c2cccc(Cl)c2F)[C@@]1(C#N)c1ccc(Cl)cc1F` [Compound A1720, (2R,3S,4R,5S)-3-(3-chloro-2-fluorophenyl)-4-(4-chloro-2-fluorophenyl)-4-cyano-5-(2,2-dimethylpropyl)-N-[1-(4-{[(1,3-trans)-3-(3-chloro-4-cyanophenoxy)-2,2,4,4-tetramethylcyclobutyl]carbamoyl}phenyl)-1,4,7,10,13-pentaoxapentadecan-15-yl]pyrrolidine-2-carboxamide], for which the AR degradation (%) at 1 µM lay within 25 to 50%.

In turn, `CC(C)(C)C[C@H]1N[C@H](C(=O)NCCOCCOCCOCCOCCOc2ccc(C(=O)N[C@H]3C(C)(C)[C@H](Oc4ccc(C#N)c(Cl)c4)C3(C)C)cc2)[C@@H](c2cccc(Cl)c2F)[C@]1(C#N)c1ccc(Cl)cc1F` [Compound A1735, (2S,3R,4S,5R)-3-(3-chloro-2-fluorophenyl)-4-(4-chloro-2-fluorophenyl)-4-cyano-5-(2,2-dimethylpropyl)-N-[1-(4-{[(1r,3r)-3-(3-chloro-4-cyanophenoxy)-2,2,4,4-tetramethylcyclobutyl]carbamoyl]phenyl)-1,4,7,10,13-pentaoxapentadecan-15-yl]pyrrolidine-2-carboxamide] gave an AR degradation (%) at 1 µM of 0 to 25%.

In a further assay the test system is p53. In words: Western blot of HCT116 cells, p53 level. The assay is classed as cell-based, human. The settings on record: Western blot (FIG. 2, FIG. 3). Background: A western blot detects proteins with antibodies after separation by electrophoresis.
In the case of `COc1cc(C(=O)NCCOCCOCC(=O)N[C@H](C(=O)N2C[C@H](O)C[C@H]2C(=O)NCc2ccc(-c3scnc3C)cc2)C(C)(C)C)ccc1NC(=O)[C@@H]1N[C@@H](CC(C)(C)C)[C@](C#N)(c2ccc(Cl)cc2F)[C@H]1c1cccc(Cl)c1F` [Compound A1907], the p53 level increase entry was “dose dependent p53 level increase”.

As to `COc1cc(C(=O)NCCOCCOCCOCC(=O)N[C@H](C(=O)N2C[C@H](O)C[C@H]2C(=O)NCc2ccc(-c3scnc3C)cc2)C(C)(C)C)ccc1NC(=O)[C@@H]1N[C@@H](CC(C)(C)C)[C@](C#N)(c2ccc(Cl)cc2F)[C@H]1c1cccc(Cl)c1F` [Compound A1910, (2R,3S,4R,5S)-3-(3-chloro-2-fluorophenyl)-4-(4-chloro-2-fluorophenyl)-4-cyano-5-(2,2-dimethylpropyl)-N-{4-[(2-{2-[2-({[(2S)-1-[(2S,4R)-4-hydroxy-2-({[4-(4-methyl-1,3-thiazol-5-yl)phenyl]methyl}-carbamoyl)pyrrolidin-1-yl]-3,3-dimethyl-1-oxobutan-2-yl]carbamoyl}methoxy)-ethoxy]ethoxy}ethyl)carbamoyl]-2-methoxyphenyl}pyrrolidine-2-carboxamide], the p53 level increase result is recorded as “dose dependent p53 level increase”.
